Assay results taken from patent publication US5672710A, “Sulfides, sulfoxides and sulfones disubstituted with a tetrahydronaphthalenyl, chromanyl, thiochromanyl or tetrahydroquinolinyl and substituted phenyl or heteroaryl group, having retinoid-like biological activity” (priority 1995, dated 1997).

What was measured:
RARγ [1] = target: T1, RARγ (Homo sapiens, UniProt P13631); assay: Ligand binding assay, RARγ
T1 construct: expressed in transfected cells; host or cells: CV1
T1 sequence (P13631 1-454): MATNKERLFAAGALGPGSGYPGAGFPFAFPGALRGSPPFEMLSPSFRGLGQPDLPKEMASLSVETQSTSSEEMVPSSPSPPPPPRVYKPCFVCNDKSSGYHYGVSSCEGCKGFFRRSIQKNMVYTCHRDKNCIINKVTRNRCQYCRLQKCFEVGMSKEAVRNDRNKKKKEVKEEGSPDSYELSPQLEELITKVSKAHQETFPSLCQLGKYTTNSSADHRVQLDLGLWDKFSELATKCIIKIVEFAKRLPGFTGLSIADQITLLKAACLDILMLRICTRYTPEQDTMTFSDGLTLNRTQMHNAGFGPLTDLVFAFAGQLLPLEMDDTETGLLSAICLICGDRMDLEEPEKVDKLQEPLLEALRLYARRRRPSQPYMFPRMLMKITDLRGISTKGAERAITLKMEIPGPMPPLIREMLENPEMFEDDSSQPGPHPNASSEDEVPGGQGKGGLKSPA
From the text: (§1) A holoreceptor transactivation assay and a ligand binding assay which measure the ability of the compounds of the invention to bind to the several retinoid receptor subtypes, respectively, are described in published PCT Application No. WO W093/11755 (particularly on pages 30-33 and 37-41) published on Jun. 24, 1993, the specification of which is also incorporated herein by reference. A description of the holoreceptor transactivation assay is also provided below.
(§2) CV1 cells (5,000 cells/well) were transfected with an RAR reporter plasmid MTV-TREp-LUC (50 ng) along with one of the […] expression vectors (10 ng) in an automated 96-well format by the calcium phosphate procedure of Heyman et al. Cell 68, 397-406. (8). For RXRα and RXR.GAMMA. transactivation assays, an RXR-responsive reporter plasmid CRBPII-tk-LUC (50 ng) along with the appropriate RXRexpression vectors (10 ng) was used substantially as described by Heyman et al. above, and Allegretto et al. J. Biol. Chem. 268, 26625-26633. For RXRβ transactivation assays, an RXR-responsive reporter plasmid CPRE-tk-LUC ([…]) along with RXRβ expression vector ([…]) was used as described in above. These reporters contain DRI elements from human CRBPII and certain DRI elements from promoter, respectively. (see Mangelsdorf et al. The Retinoids: Biology, Chemistry and Medicine, pp 319-349, Raven Press Ltd., New York and Heyman et al., cited above) (1, 8). A β-galactosidase (50 ng) expression vector was used as an internal control in the transfections to normalize for variations in transfection efficiency. The cells were transfected in triplicate for 6 hours, followed by incubation with retinoids for 36 hours, and the extracts were assayed for luciferase and β-galactosidase activities. The detailed experimental procedure for holoreceptor transactivations has been described in Heyman et al. above, and Allegretto et al. cited above. The results obtained in this assay in connection with examplary compounds in accordance with the present invention are expressed in EC50 numbers, as they are also in the chimeric receptor transactivation assay. The Heyman et al. Cell 68, 397-406, Allegretto et al. J. Biol. Chem. 268, 26625-26633, and Mangelsdorf et al. The Retinoids: Biology, Chemistry and Medicine, pp 319-349, Raven Press Ltd., New York, are expressly incorporated herein by reference. The results of ligand binding assay are expressed in Kd numbers. (See Cheng et al. Biochemical Pharmacology Vol. 22 pp 3099-3108, expressly incorporated herein by reference.)

RARγ [2] = target: T1, RARγ; assay: Holoreceptor transactivation assay, RARγ; assay type: cell-based; details: CV-1; CV1 cells; relative to all trans retinoic acid; read-out: Transactivation Assay Efficacy (% of RA activity), RARγ
From the text: as §1, §2

RARα = target: T2, RARα (Homo sapiens, UniProt P10276); assay: Holoreceptor transactivation assay, RARα; assay type: cell-based; details: CV-1; CV1 cells; relative to all trans retinoic acid; read-out: Transactivation Assay Efficacy (% of RA activity), RARα
T2 construct: expressed in transfected cells; host or cells: CV1
T2 sequence (P10276 1-462): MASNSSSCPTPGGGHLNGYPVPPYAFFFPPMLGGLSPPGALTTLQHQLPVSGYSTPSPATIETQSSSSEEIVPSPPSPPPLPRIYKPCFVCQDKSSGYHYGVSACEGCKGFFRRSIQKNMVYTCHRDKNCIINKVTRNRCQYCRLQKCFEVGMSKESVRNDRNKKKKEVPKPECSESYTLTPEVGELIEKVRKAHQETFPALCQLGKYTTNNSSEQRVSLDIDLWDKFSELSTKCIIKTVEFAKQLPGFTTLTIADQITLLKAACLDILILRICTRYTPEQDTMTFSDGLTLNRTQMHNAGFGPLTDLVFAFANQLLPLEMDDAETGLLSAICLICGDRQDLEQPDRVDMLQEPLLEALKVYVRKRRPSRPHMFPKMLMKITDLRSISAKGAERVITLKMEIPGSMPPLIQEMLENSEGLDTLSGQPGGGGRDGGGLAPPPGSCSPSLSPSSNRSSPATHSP
From the text: as §1, §2

RXRβ = target: T3, RXRβ (Mus musculus, UniProt P28704); assay: Holoreceptor transactivation assay, RXRβ; assay type: cell-based; details: CV1 cells; for EC50: 36 hours; for Emax: CV-1, relative to all trans retinoic acid, read-out: Transactivation Assay Efficacy (% of RA activity), RXRβ
T3 construct: expressed in transfected cells; host or cells: CV1
T3 sequence (P28704 1-520): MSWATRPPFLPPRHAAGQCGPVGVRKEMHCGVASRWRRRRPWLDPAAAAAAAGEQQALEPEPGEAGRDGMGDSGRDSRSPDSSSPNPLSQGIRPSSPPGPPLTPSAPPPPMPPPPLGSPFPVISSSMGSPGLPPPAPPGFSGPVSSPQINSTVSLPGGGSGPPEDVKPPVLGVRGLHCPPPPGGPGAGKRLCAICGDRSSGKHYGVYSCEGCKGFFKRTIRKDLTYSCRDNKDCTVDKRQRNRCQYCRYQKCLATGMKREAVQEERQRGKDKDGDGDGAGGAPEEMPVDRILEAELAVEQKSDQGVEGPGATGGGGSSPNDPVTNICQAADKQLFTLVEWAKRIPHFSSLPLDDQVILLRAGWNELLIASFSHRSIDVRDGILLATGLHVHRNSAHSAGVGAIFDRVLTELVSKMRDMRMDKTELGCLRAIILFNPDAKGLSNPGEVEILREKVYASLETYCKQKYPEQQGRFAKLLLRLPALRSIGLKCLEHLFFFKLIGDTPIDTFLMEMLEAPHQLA
From the text: as §1, §2

| SMILES | Kd (RARγ [1]) [nM] | Emax (RARγ [2]) [%] | Emax (RARα) [%] | EC50 (RXRβ) [nM] | Emax (RXRβ) [%] |
| --- | --- | --- | --- | --- | --- |
| Cc1cc2c(cc1Sc1ccc(C(=O)O)cn1)C(C)(C)CCC2(C)C [Compound 13] | > 10000 | 0 | 1 |  |  |
| Cc1cc2c(cc1S(=O)(=O)c1ccc(C(=O)O)cc1)C(C)(C)CCC2(C)C [Compound 11, 4-(5,6,7,8-tetrahydro-3,5,5,8,8-pentamethyl-2-naphthylsulfonyl)benzoic acid] | > 1000 | 0 | 2 |  |  |
| Cc1cc2c(cc1Sc1ncc(C(=O)O)s1)C(C)(C)CCC2(C)C [Compound 15, 2-(5,6,7,8-Tetrahydro-3,5,5,8,8-pentamethyl-2-naphthylthio)-5-thiazolecarboxylic acid] | > 1000 | 7 | 1 | 1300 | 117 |
| Cc1cc2c(cc1[S+]([O-])c1ccc(C(=O)O)cc1)C(C)(C)CCC2(C)C (stereo not drawn) [Compound 9, 4-(5,6,7,8-tetrahydro-3,5,5,8,8-pentamethyl-2-naphthylsulfoxy)benzoic acid] | > 1000 | 3 | 5 | 3000 | 29 |

Now from value to molecule:

| Kd (RARγ [1]) [nM] | Emax (RARγ [2]) [%] | Emax (RARα) [%] | EC50 (RXRβ) [nM] | Emax (RXRβ) [%] | SMILES |
| --- | --- | --- | --- | --- | --- |
| > 1000 | 11 | 3 | 320 | 114 | Cc1cc2c(cc1Sc1ccc(C(=O)O)cc1)C(C)(C)CCC2(C)C [Compound 7, 4-(5,6,7,8-tetrahydro-3,5,5,8,8-pentamethyl-2-Daphthylthio)benzoic acid] |
| > 1000 | 0 | 10 |  | 11 | CC1(C)CCC(C)(C)c2cc(S(=O)(=O)c3ccc(C(=O)O)cc3)ccc21 [Compound 5, 4-(5,6,7,8-tetrahydro-5,5,8,8-tetramethyl-2-naphthylsulfonyl)benzoic acid] |
| > 1000 | 37 | 3 | 1600 | 80 | CC1(C)CCC(C)(C)c2cc(Sc3ccc(C(=O)O)cc3)ccc21 [Compound 2] |
